Reference: patent US12698507B2, “Methods and compositions for conferring and/or enhancing herbicide tolerance using protoporphyrinogen IX oxidase of various cyanobacteria or variant thereof” (FarmHannong Co., Ltd., priority 2019, dated 2026)
Read-outs that look alike come from different tables or passages of the source.

Experiments:
[1] = target: T1, Thermosynechococcus elongatus PKUAC-SCTE542 protoporphyrinogen IX oxidase CyPPO19, wild type, SEQ ID NO: 1 (MBP fusion) (Thermosynechococcus sichuanensis, UniProt A0A7D6JSC1); assay: PPO enzyme inhibition assay (IC50 for herbicides), CyPPO19 wild type fused to MBP; assay type: biochemical
T1 sequence (A0A7D6JSC1 1-467): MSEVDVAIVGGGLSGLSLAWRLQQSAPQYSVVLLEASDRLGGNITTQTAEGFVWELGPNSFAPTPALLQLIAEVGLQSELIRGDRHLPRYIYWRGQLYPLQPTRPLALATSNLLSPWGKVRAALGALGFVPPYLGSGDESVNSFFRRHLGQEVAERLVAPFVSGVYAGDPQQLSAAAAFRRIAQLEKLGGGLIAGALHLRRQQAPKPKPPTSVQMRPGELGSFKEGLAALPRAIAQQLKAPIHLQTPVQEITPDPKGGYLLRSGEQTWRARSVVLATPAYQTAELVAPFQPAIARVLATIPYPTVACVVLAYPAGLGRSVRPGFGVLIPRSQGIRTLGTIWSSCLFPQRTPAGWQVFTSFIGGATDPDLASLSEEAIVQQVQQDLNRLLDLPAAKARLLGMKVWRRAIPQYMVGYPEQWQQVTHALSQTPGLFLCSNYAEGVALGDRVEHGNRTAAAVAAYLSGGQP

[2] = target: Thermosynechococcus elongatus PKUAC-SCTE542 protoporphyrinogen IX oxidase CyPPO19 (SEQ ID NO: 1) variant V305M (MBP fusion) (Thermosynechococcus sichuanensis, UniProt A0A7D6JSC1, V305M); assay: PPO enzyme inhibition assay (IC50 for herbicides), CyPPO19 V305M fused to MBP; assay type: biochemical
Sequence of Thermosynechococcus elongatus PKUAC-SCTE542 protoporphyrinogen IX oxidase CyPPO19 (SEQ ID NO: 1) variant V305M (MBP fusion) (A0A7D6JSC1 entry or part of it V305M): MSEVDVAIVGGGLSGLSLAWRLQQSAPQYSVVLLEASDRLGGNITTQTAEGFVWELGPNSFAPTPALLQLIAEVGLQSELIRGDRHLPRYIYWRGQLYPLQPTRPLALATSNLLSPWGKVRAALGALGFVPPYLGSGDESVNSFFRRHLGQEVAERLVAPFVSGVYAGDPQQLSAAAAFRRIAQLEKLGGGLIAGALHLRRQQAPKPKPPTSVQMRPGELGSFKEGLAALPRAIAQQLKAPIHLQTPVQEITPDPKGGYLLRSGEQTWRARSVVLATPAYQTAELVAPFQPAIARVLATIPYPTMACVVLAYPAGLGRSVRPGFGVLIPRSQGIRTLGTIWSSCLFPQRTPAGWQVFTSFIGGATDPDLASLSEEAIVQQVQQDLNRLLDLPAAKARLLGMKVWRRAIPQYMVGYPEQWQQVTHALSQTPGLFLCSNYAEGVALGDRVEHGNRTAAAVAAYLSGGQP

[3] = target: Thermosynechococcus elongatus PKUAC-SCTE542 protoporphyrinogen IX oxidase CyPPO19 (SEQ ID NO: 1) variant A167C (MBP fusion) (Thermosynechococcus sichuanensis, UniProt A0A7D6JSC1, A167C); assay: biochemical
Sequence of Thermosynechococcus elongatus PKUAC-SCTE542 protoporphyrinogen IX oxidase CyPPO19 (SEQ ID NO: 1) variant A167C (MBP fusion) (A0A7D6JSC1 entry or part of it A167C): as the sequence (A0A7D6JSC1 entry or part of it V305M) above, with A167C, M305V counted along it

[4] = target: Thermosynechococcus elongatus PKUAC-SCTE542 protoporphyrinogen IX oxidase CyPPO19 (SEQ ID NO: 1) variant R89A (MBP fusion) (Thermosynechococcus sichuanensis, UniProt A0A7D6JSC1, R89A); assay: biochemical
Sequence of Thermosynechococcus elongatus PKUAC-SCTE542 protoporphyrinogen IX oxidase CyPPO19 (SEQ ID NO: 1) variant R89A (MBP fusion) (A0A7D6JSC1 entry or part of it R89A): as the sequence (A0A7D6JSC1 entry or part of it V305M) above, with R89A, M305V counted along it

[5] = target: Thermosynechococcus elongatus PKUAC-SCTE542 protoporphyrinogen IX oxidase CyPPO19 (SEQ ID NO: 1) variant V165C (MBP fusion) (Thermosynechococcus sichuanensis, UniProt A0A7D6JSC1, V165C); assay: PPO enzyme inhibition assay (IC50 for herbicides), CyPPO19 V165C fused to MBP; assay type: biochemical
Sequence of Thermosynechococcus elongatus PKUAC-SCTE542 protoporphyrinogen IX oxidase CyPPO19 (SEQ ID NO: 1) variant V165C (MBP fusion) (A0A7D6JSC1 entry or part of it V165C): as the sequence (A0A7D6JSC1 entry or part of it V305M) above, with V165C, M305V counted along it

[6] = target: Thermosynechococcus elongatus PKUAC-SCTE542 protoporphyrinogen IX oxidase CyPPO19 (SEQ ID NO: 1) variant V305L (MBP fusion) (Thermosynechococcus sichuanensis, UniProt A0A7D6JSC1, V305L); assay: PPO enzyme inhibition assay (IC50 for herbicides), CyPPO19 V305L fused to MBP; assay type: biochemical
Sequence of Thermosynechococcus elongatus PKUAC-SCTE542 protoporphyrinogen IX oxidase CyPPO19 (SEQ ID NO: 1) variant V305L (MBP fusion) (A0A7D6JSC1 entry or part of it V305L): as the sequence (A0A7D6JSC1 entry or part of it V305M) above, with M305L counted along it

[7] = target: Thermosynechococcus elongatus PKUAC-SCTE542 protoporphyrinogen IX oxidase CyPPO19 (SEQ ID NO: 1) variant A167I (MBP fusion) (Thermosynechococcus sichuanensis, UniProt A0A7D6JSC1, A167I); assay: biochemical; conditions: 50 μM protoporphyrinogen IX, pH 7.5, room temperature, 30 min, 10,000 means equivalent to or higher, read-out: IC50
Sequence of Thermosynechococcus elongatus PKUAC-SCTE542 protoporphyrinogen IX oxidase CyPPO19 (SEQ ID NO: 1) variant A167I (MBP fusion) (A0A7D6JSC1 entry or part of it A167I): as the sequence (A0A7D6JSC1 entry or part of it V305M) above, with A167I, M305V counted along it

[8] = target: Thermosynechococcus elongatus PKUAC-SCTE542 protoporphyrinogen IX oxidase CyPPO19 (SEQ ID NO: 1) variant A167L (MBP fusion) (Thermosynechococcus sichuanensis, UniProt A0A7D6JSC1, A167L); assay: biochemical; conditions: 50 μM protoporphyrinogen IX, pH 7.5, room temperature, 30 min, 10,000 means equivalent to or higher, read-out: IC50
Sequence of Thermosynechococcus elongatus PKUAC-SCTE542 protoporphyrinogen IX oxidase CyPPO19 (SEQ ID NO: 1) variant A167L (MBP fusion) (A0A7D6JSC1 entry or part of it A167L): as the sequence (A0A7D6JSC1 entry or part of it V305M) above, with A167L, M305V counted along it

[9] = target: Thermosynechococcus elongatus PKUAC-SCTE542 protoporphyrinogen IX oxidase CyPPO19 (SEQ ID NO: 1) variant V165S (MBP fusion) (Thermosynechococcus sichuanensis, UniProt A0A7D6JSC1, V165S); assay: biochemical; conditions: 50 μM protoporphyrinogen IX, pH 7.5, room temperature, 30 min, 10,000 means equivalent to or higher, read-out: IC50
Sequence of Thermosynechococcus elongatus PKUAC-SCTE542 protoporphyrinogen IX oxidase CyPPO19 (SEQ ID NO: 1) variant V165S (MBP fusion) (A0A7D6JSC1 entry or part of it V165S): as the sequence (A0A7D6JSC1 entry or part of it V305M) above, with V165S, M305V counted along it

[10] = test system: transgenic A. thaliana (T1) transformed with CyPPO19, CyPPO18 or variant genes; assay: Herbicide tolerance of transgenic A. thaliana (T1 plants); assay type: in vivo, Arabidopsis thaliana; conditions: 1 μM tiafenacil and 0.05% Silwet L-77
Text: Transgenic plants were screened with glufosinate tolerance which was conferred by Bar gene expression in the binary vector. […] They were, then, transplanted into soil and grown to obtain T1 plants.

[11] = test system: wild type A. thaliana (Col-0); assay: Herbicide injury of wild type A. thaliana (Col-0) after spraying; assay type: in vivo, Arabidopsis thaliana; conditions: 1 μM tiafenacil and 0.05% Silwet L-77, within 7 days
A. thaliana = assay: PPO-inhibiting herbicide tolerance test of transgenic A. thaliana (herbicide spray, injury index); assay type: in vivo, Arabidopsis thaliana; conditions: transgenic A. thaliana (T2), tiafenacil or flumioxazin spray

Molecule: CS(=O)(=O)NC(=O)c1cc(Oc2ccc(C(F)(F)F)cc2Cl)ccc1[N+](=O)[O-] [Fomesafen]
- IC50 [1]: 0.242 µM
- IC50 [2]: 0.257 µM
- IC50 [3]: 0.843 µM
- IC50 [4]: 2.36 µM
- IC50 [5]: 0.33 µM
- IC50 [6]: 0.466 µM
- IC50 [7]: 0.899 µM
- IC50 [8]: 1.76 µM
- IC50 [9]: 0.348 µM

Molecule: COC(=O)CCNC(=O)C(C)Sc1cc(-n2c(=O)cc(C(F)(F)F)n(C)c2=O)c(F)cc1Cl (stereo not shown) [Tiafenacil]
- IC50 ([1]; CyPPO19 WT, 50 μM protoporphyrinogen IX, pH 7.5, room temperature, 30 min, read-out: IC50): 0.067 µM
- IC50 [2]: 0.392 µM
- IC50 [3]: 0.342 µM
- IC50 [4]: 0.113 µM
- survival after herbicide treatment [10]: survived
- IC50 [5]: 0.186 µM
- IC50 [6]: 1.14 µM
- IC50 [7]: 0.248 µM
- survival after herbicide treatment [11]: completely died within 7 days
- IC50 [8]: 0.597 µM
- IC50 [9]: 0.269 µM

B1: CyPPO19 WT: PPO protein derived from Thermosynechococcus elongatus PKUAC-SCTE542 strain, SEQ ID NO: 1 (protein)
chain: MSEVDVAIVGGGLSGLSLAWRLQQSAPQYSVVLLEASDRLGGNITTQTAEGFVWELGPNSFAPTPALLQLIAEVGLQSELIRGDRHLPRYIYWRGQLYPLQPTRPLALATSNLLSPWGKVRAALGALGFVPPYLGSGDESVNSFFRRHLGQEVAERLVAPFVSGVYAGDPQQLSAAAAFRRIAQLEKLGGGLIAGALHLRRQQAPKPKPPTSVQMRPGELGSFKEGLAALPRAIAQQLKAPIHLQTPVQEITPDPKGGYLLRSGEQTWRARSVVLATPAYQTAELVAPFQPAIARVLATIPYPTVACVVLAYPAGLGRSVRPGFGVLIPRSQGIRTLGTIWSSCLFPQRTPAGWQVFTSFIGGATDPDLASLSEEAIVQQVQQDLNRLLDLPAAKARLLGMKVWRRAIPQYMVGYPEQWQQVTHALSQTPGLFLCSNYAEGVALGDRVEHGNRTAAAVAAYLSGGQP
modifications: Synthetic_PPO of Thermosynechococcus elongatus PKUAC-SCTE542 (comprising GenBank No. CP032152.1)
- herbicide tolerance compared to non-transgenic plants (A. thaliana): increased herbicide tolerance

B2: CyPPO18 WT: PPO protein derived from Thermosynechococcus vulcanus NIES-2134 strain, SEQ ID NO: 3 (protein)
chain: MIEVDVAIVGGGLSGLSVAWRLQRSAPHYSGVLLEASDRLGGNITTQAAEGFVWELGPNSFAPTPALLQLIAEVGLHSELIRGDRHLPRYIYWRGELYPLEPTRPLALATSNLLSPWGKVRAALGALGFVPPYLGSGDESVDSFFRRHLGQEVAERLVAPFVSGVYAGDPQQLSAAAAFRRIAQLEKLGGSLIAGALRLRRQQPPQPKPPAQVQMRPGELGSFREGLAALPRAIAQQLKAPLHLQTPVEAITPEPKGGYLLRSGEQTWHARSVVLATPAYQSAELVAPFQPAIARALATIPYPTVACVVLAYPAGLGRSVRPGFGVLVPRGQGIRTLGTIWSSCLFPQRTPAGWQVFTSFIGGATDPDLASLREEAIVEQVQQDLTRLLDLPAAKARLLGMKVWRRAIPQYIVGYPQQWQQLTHALTQTPGLFLCSNYAEGVALGDRVEHGNRTAAAVAAYLAGGQS
modifications: Synthetic_PPO of Thermosynechococcus vulcanus NIES-2134 (BAY51976)
- herbicide tolerance compared to non-transgenic plants (A. thaliana): increased herbicide tolerance
